Data on one compound can be found in patent US20110065760A1, “COMPOUNDS FOR THE INHIBITION OF ROTAMASES AND USE THEREOF” (Jerini AG, priority 2002, published 2011).

In data set [1] the target is LpCyp18 (Legionella pneumophila, UniProt Q5ZRZ4). The data set is described as follows: biochemical. The following applies: IC50 class, Target T-4 (LpCyp18).
Data set [2] concerns the target T1, Papain (Carica papaya, UniProt P00784).
T1 sequence (P00784 134-345): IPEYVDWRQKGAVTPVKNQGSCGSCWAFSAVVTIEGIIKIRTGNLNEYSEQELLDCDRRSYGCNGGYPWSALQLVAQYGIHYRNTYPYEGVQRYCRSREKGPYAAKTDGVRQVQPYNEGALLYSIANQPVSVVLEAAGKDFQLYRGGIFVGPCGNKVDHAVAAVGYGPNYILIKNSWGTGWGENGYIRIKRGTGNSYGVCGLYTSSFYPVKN
The data set is described as follows: papain assay. The data set is classed as biochemical. The following applies: 16 μg/ml papain, 2 mM Bz-DL-Arg-pNA, pH 6.5, 30° C., 30 min incubation; read-out: IC50 class, Target T-6 (Papain). The method in brief:
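Enzyme pre-incubated 30 min with 1-100 μM compound at 30° C, then pNA substrate added; 4-nitroaniline release read at 390 nm. Trypsin: 0.1 μg/ml, 120 μM Ac-Ala-Ala-Ser(PO3H2)-Pro-Arg-pNA, HEPES pH 7.8; cathepsin B: 0.2 μg/ml, 2 mM Z-Arg-Arg-pNA, phosphate/EDTA/Brij 35 pH 5.8; papain: 16 μg/ml, 2 mM Bz-DL-Arg-pNA, phosphate/L-Cys/EDTA pH 6.5.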

In data set [3] the test system is Hela cells. Nature of the data set: DAPI staining. The data set is classed as cell-based, human. The note with it: FIG. 3. How it is done: Hela cells grown on poly-L-Lys-coated coverslips were fixed with 2% paraformaldehyde/MeOH.
Cellular DNA was stained with DAPI staining buffer (100 mM Tris (pH 7.4), 150 mM NaCl, 1 mM CaCl2, 0.5 mM MgCl2, 0.1% nonidet P-40, 1 μg/ml DAPI (Molecular Probes)). All the steps were performed at room temperature, and cells were washed two times with PBS after each step. Finally, cells were mounted in 80% glycerol/PBS.

In data set [4] the test system is tumor cell lines (HL-60, HeLa, PC-3, Caco-2, MCF-7). The data set is described as follows: WST-1 cytotoxicity assay, tumor cell lines (panel statement). The data set is classed as cell-based, human. The note with it: WST-1, 48 h; table 4. The method, boiled down:
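Human tumour cell lines in culture were exposed to compounds at 37° C for 48 h, then given WST-1. Viability was read as formazan absorbance at (450 vs. 620) nm.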
A general note: Tetrazolium dyes change colour on reduction, which living cells bring about.

Data set [5] relates to cyclin D1 in MCF-7 and HeLa cells. The data set is described as follows: Cyclin D1 down regulation (western blot marker analysis). The data set is classed as cell-based, human. How it is done: MCF-7 (5×10^5 cells/well) and HeLa cells (1.5×10^5 cells/well) were seeded in 6-well plates and incubated at 37° C. over night. Compounds or DMSO (final solvent concentration 0.1%) were added to the cells and incubated for different times as indicated. Subsequently, cells were lysed in RIPA buffer for 30 min on ice and centrifuged for 20 min at 4° C. After addition of electrophoresis sample buffer (4×) and 50 mM DTT to the supernatant, samples were boiled for 4 min at 95° C. Samples (equivalent to 2×10^5 cells/well) were run on a 15% SDS gel followed by blotting onto PVDF membrane.
The membrane was blocked for 1 h in 10 mM Tris (pH 7.5), 100 mM NaCl, 0.1% Tween-20 and 5% non-fat dry milk (blocking buffer) and incubated for 1 h with mouse anti-hCyclin D1 monoclonal antibody (clone DCS-6, BD Biosciences) diluted to 1 μg/ml in blocking buffer. Blots were washed 3×10 min with 10 mM Tris (pH 7.5), 100 mM NaCl, 0.1% Tween-20 (washing buffer) and incubated with 0.7 μg/ml peroxidase-conjugated sheep anti-mouse IgG (Sigma) in blocking buffer for 1 h. After washing 3×10 min with washing buffer, the plot was developed with the ECL+ detection kit (Amersham Biosciences).
In general terms: A western blot detects proteins with antibodies after separation by electrophoresis.

Chain of LpCyp18 (Q5ZRZ4 1-164): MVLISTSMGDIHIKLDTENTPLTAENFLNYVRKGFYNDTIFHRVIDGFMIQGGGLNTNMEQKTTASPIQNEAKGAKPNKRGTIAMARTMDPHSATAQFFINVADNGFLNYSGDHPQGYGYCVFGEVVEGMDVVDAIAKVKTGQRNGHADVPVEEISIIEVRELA

By IC50 is commonly meant the concentration that gives 50% inhibition. Consider `Cc1c(Cl)cc(NC(=O)NC(C)(C)CC(C)(C)C)c(O)c1Cl` [Compound 102], for which the values for the concentration for half-maximal inhibition (IC50) in data set [1] and in data set [2] were 10 to 50 µM and 50 to 100 µM, respectively. In addition, the “induction of apoptosis (DAPI staining, fluorescence microscopy)” value in data set [3] is recorded as “induce apoptosis”. In data set [4], the “cytotoxic effect on the tumor cell lines tested” value is “particular relevance”. Moreover, in data set [5], the “cyclin D1 down regulation” value is “particular relevance”.
